Test results published in US20090098548A1, “MODULATORS OF ENZYMATIC NUCLEIC ACID ELEMENTS MOBILIZATION” (priority 2004, published 2009).
Entries after “also recorded” stand apart in the source; their conditions may differ. Where two headings read alike, the source gives them in different places.

How the values were obtained:
[1] = test system: luciferase expression from proviral DNA; assay: Established provirus luciferase expression in stably infected Ghost-R5 cells; assay type: cell-based, HIV-1; settings: 75 μM inhibitor, chronically infected cells
Procedure: To assess the potential effects of the inhibitory compounds on post-integration events such as transcription, translation, and luciferase enzyme stability and activity, Ghost-R5 cells stably infected several weeks earlier with the same virus preparation were incubated with inhibitory compound in 96 well dishes and luciferase activity was monitored 48 hours later by the addition of 100 μL of Bright-Glo reagent to each well, as described above.

HIV-1 = test system: HIV-1
Procedure: HIV-1 transduction assay and inhibitory screen: 10,000 Ghost-R5 cells per well were plated in a 384 well plate in 49 μL media. 18 hours after plating, 1 μL of inhibitory compound, dissolved in DMSO, was added and gently mixed into solution. Following a 1 hour 37° C. incubation, HIV-1 virions were added in a final infectious volume of 100 μL. 44-48 hours after infection, 87 μL of media was removed from each well, and 13 μL/well of Bright-Glo luciferase detection reagent (Promega) was added. After a 2 minute incubation, the plates were read on a multiwell plate luminometer.
In parallel, cells infected with virus and compound were assayed for luciferase expression by the addition of […] of Bright-Glo reagent, as described above. In this way, effect of the inhibitory compounds on luciferase expression brought about by successful transduction was measured in the constant presence of the compounds.

HIV-1 integrase [2] = biological target: T1, HIV-1 integrase (Human immunodeficiency virus type 1 group M subtype B, UniProt P04585); assay: HIV-1 integrase assay (3' strand processing, PAGE); assay type: biochemical; set-up: made in house
Procedure: (§1) HIV-1 integrase assay: HIV-1 integrase activity was measured as described in Daniel, R. et al., AIDS Res Hum Retroviruses 20:135-44, 2004 (incorporated by reference in its entirety), except that 1.0 μL of either DMSO or inhibitor were added to the reactions. Briefly, HIV-1 integrase (1 μM, final concentration) was pre-incubated with various concentrations of inhibitor at 30° C. for 30 min. A 21-base pair ^32P labeled substrate (1×10^6 dpm), representing the U5 end of the viral genome, and MnCl2 (10 mM, final concentration) were subsequently added to the reaction. The reaction proceeded for 15 min. at 37° C. The reactions were subsequently quenched using EDTA (10 mM, final concentration), and the products separated on a 20% denaturing polyacrylamide gel.

[3] = test system: HIV reverse transcription; assay: Quantitative real-time PCR of reverse transcripts in acutely infected cells; assay type: cell-based, HIV-1; settings: 75 μM inhibitor, QPCR
Procedure: Quantitative real-time PCR of reverse transcripts, detection of transduction in newly infected cells, and effect of compounds on established provirus expression in stably infected cells: 10,000 Ghost-R5 cells were plated in 96 well dishes, treated with compound in a total volume of 75 μL, and incubated at 37° C. for 1 hour. Virus was then added in an additional volume of 25 μL. The final infectious volume was 100 μL, the final DMSO concentration was 1%, and the final compound concentration was as indicated. DNA was harvested using the DNeasy kit (Qiagen) 24 hours after infection in the constant presence of inhibitory compounds. Late DNA products of HIV reverse transcription were quantitated using the primers MH531 and MH532, and the probe LTR-P, as described in Burke, T. R. et al., J Med Chem 38:4171-8, 1995, herein incorporated by reference in its entirety.

Tn5 transposase = biological target: T2, Tn5 transposase (Escherichia coli, UniProt Q46731, E54K/L372P/M56A); assay type: binding
T2 construct: made in house
Procedure: For FP analysis, 60 μL reactions were analyzed using the FP protocol on a Wallac Victor V plate reader and a 7% native polyacrylamide gel was used in gel shift assays. For compound screening and subsequent analysis, 1 μL of either DMSO or test compound (final concentration 80 KIM) was added to the synapsis reactions. Compound screening was carried out using a Beckman Coulter Biomek FX in a 384 well format. Compounds identified as hits were rescreened using gel shift assays under synapsis conditions with a 120 μM compound concentration. IC50 values were obtained by fitting inhibitor titration data (0, 0.01, 0.05, 0.1, 0.5, 2.5, 10, 20, 35, 50, 100, 200, 400, 800 μM) to an exponential decay.

[4] = biological target: T3, Tn5 transposase (EK54, MA56 and LP372 hyperactive mutant version) (Escherichia coli, UniProt Q46731, E54K/L372P/M56A); assay: Inhibition of Tn5 transposase-DNA complex assembly (synapsis), gel shift assay; assay type: binding, prokaryotic (Tn5 transposon, IS4 family); settings: 800 nM transposase, 160 nM dsDNA, 60 bp DNA, fit to exponential decay, ± SD from fit, at least two, typically three experiments
T3 construct: made in house
T3 sequence (Q46731 1-476 E54K/M56A/L372P): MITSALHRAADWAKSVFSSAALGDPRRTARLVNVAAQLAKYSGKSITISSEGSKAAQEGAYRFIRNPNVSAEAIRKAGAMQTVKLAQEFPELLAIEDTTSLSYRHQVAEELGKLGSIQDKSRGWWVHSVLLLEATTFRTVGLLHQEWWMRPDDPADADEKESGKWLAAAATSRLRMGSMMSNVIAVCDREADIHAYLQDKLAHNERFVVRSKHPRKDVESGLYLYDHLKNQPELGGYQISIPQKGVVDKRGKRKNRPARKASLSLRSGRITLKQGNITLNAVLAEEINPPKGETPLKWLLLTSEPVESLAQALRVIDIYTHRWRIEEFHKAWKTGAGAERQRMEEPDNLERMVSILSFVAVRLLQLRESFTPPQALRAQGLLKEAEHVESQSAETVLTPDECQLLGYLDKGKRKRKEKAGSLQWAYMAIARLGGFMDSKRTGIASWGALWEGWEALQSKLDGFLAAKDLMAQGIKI
Procedure: The data in this graph were obtained from multiple experiments. Each data point represents at least two, typically three, independent experiments. Error is represented as the standard deviation (SD) from the fit of the data to the equation used to calculate the IC50. Tnp=transposase.
IC50 values were determined from gel shift assays, similar to FIG. 5. […] Each value represents at least two, typically three, independent experiments. Error is represented as the standard deviation (SD) from the fit of the data to the equation used to calculate the IC50.
DNA substrates: The oligonucleotides were purchased HPLC purified from IDT. dsDNA was formed by adding two μmoles of each oligonucleotide to 10 mM Tris-HCl pH 7.9 and 10 mM NaCl. The oligonucleotides were either heated to 96° C. for one minute followed by a decrease in temperature at 0.1° C./sec to 4° C. or heated to 90° C. in a 2 L water bath and cooled to 8° C. overnight. The transferred strand was 5′ end labeled with either rhodamine green for FP or fluorescein for gel shift assays.
The 19 bp DNA sequences used for FP assays were 5° C. […] The 40 bp DNA sequences used for the gel shift assays during assay development were 5° C.
(§2) Transposase and integrase purification: The EK54, MA56 and LP372 hyperactive mutant version of transposase was used for all assays and is referred to as transposase throughout this work. Transposase and integrase proteins were purified as described in Ason, B., and W. S. Reznikoff, J Mol Biol 335:1213-25, 2004 and Taganov, K. D. et al., Journal of Virology 78:5848-55, 2004, both are herein incorporated by reference in their entirety.
FP and gel-shift assays: Reactions were performed as described in Ason, B., and W. S. Reznikoff, J Mol Biol 335:1213-25, 2004, except 800 nM transposase and 160 nM dsDNA were used for complex formation. For FP analysis, 60 μL reactions were analyzed using the FP protocol on a Wallac Victor V plate reader and a 7% native polyacrylamide gel was used in gel shift assays. For compound screening and subsequent analysis, 1 μL of either DMSO or test compound (final concentration […]) was added to the synapsis reactions. Compound screening was carried out using a Beckman Coulter Biomek FX in a 384 well format. Compounds identified as hits were rescreened using gel shift assays under synapsis conditions with a 120 μM compound concentration. IC50 values were obtained by fitting inhibitor titration data (0, 0.01, 0.05, 0.1, 0.5, 2.5, 10, 20, 35, 50, 100, 200, 400, 800 μM) to an exponential decay.

HIV-1 integrase [5] = biological target: T1, HIV-1 integrase; assay: HIV-1 integrase in vitro activity, 3' strand processing (denaturing PAGE); assay type: biochemical; set-up: HIV-1 integrase (1 μM, final concentration); made in house
Procedure: The degree of 3′ strand processing is measured by the percentage of the signal obtained for the 3′ strand processing product relative to the total signal per lane. IN=integrase.
These values are calculated from data measuring the percentage of the 3′ strand processing product formed, as described in FIG. 6. Assay products are observed using PAGE, as described in the methods section. Each value represents at least two, typically three, independent experiments. Error is represented as the standard deviation (SD) from the fit of the data to the equation used to calculate the IC50.
Increasing concentrations (0.01, 0.1, 1, 10, 20, 30, 50, 75, 100 μM) of each compound were used to determine their ability to block HIV-1 integration in vivo and determine their inherent cytotoxicity, as described in the methods section of example 2 below. Reactions were performed in triplicate. Each compound is further analyzed for inhibition of integrase activity in vitro, as described in FIG. 6. Each value represents three independent experiments. Error is represented as the standard deviation (SD) from the fit of the data to the equation used to calculate the IC50. IN=integrase.
as §2, §1

[6] = 1 μM integrase, pre-incubated 30° C. 30 min, 21-base pair 32P substrate, 10 mM MnCl2, 15 min 37° C., ± SD from fit, at least two, typically three experiments, read-out: HIV-1 integrase (3' strand processing) IC50
[7] = read-out: HIV-1 IN (integrase) in vitro IC50

COc1ccc(N2C(=O)C(O)=C(C(=O)/C=C/c3ccccc3)C2c2cccc([N+](=O)[O-])c2)cc1 (stereo not drawn) [10-B]
effect on luciferase expression from proviral DNA [1]: no significant inhibitory effect
inhibition of HIV-1 infection in cells (in words) (HIV-1): inhibit
inhibition of integrase in vitro (in words) (HIV-1 integrase [2]): inhibit
effect on reverse transcription (viral DNA synthesis) [3]: either uninhibited, or only inhibited to a small extent; also recorded: no significant inhibitory effect
inhibition of transposase assembly (in words) (Tn5 transposase): inhibit

O=c1oc2ccccc2c(O)c1C(c1cccc(F)c1)c1c(O)c2ccccc2oc1=O [Compound 1]
IC50 [4]: 8.1 ± 1.2 µM

COc1ccc(C(c2c(O)c3ccccc3oc2=O)c2c(O)c3ccccc3oc2=O)cc1CSc1ccccn1 [Compound 2]
IC50 [4]: 4.8 ± 0.4 µM

Cc1ccc(C(c2c(O)c3ccccc3oc2=O)c2c(O)c3ccccc3oc2=O)cc1 [Compound 3]
IC50 [4]: 3.5 ± 0.4 µM

COc1ccc(C(c2c(O)c3ccccc3oc2=O)c2c(O)c3ccccc3oc2=O)cc1Cn1nc(C)c([N+](=O)[O-])c1C [Compound 4]
IC50 (HIV-1 integrase [5]; [6]): 9 ± 2 µM
IC50 [4]: 4.7 ± 0.4 µM

COc1cc(C=C2SC(=S)NC2=O)cc(Cl)c1OC(C)C [Compound 5]
IC50 [4]: 10 ± 1 µM

O=S(=O)(c1cc(Cl)cc(Cl)c1O)c1cc(Cl)cc(Cl)c1O [Compound 6]
IC50 (HIV-1 integrase [5]; [6]): 32 ± 9 µM
IC50 [4]: 4 ± 0.3 µM

CCc1nnc(NS(=O)(=O)c2ccc(NC=CC(=O)c3ccc4ccccc4c3)cc2)s1 [Compound 7]
IC50 [4]: 4 ± 0.6 µM

Cc1ccc(C(=O)Nc2ccccc2C(=O)Nc2ccccc2C(=O)O)cc1 [Compound 8]
IC50 [4]: 8.7 ± 1 µM

O=C1C(=C2c3ccccc3C(=O)C2C2c3ccccc3Oc3ccccc32)C(=O)c2ccccc21 (stereo not drawn) [Compound 9]
IC50 [4]: 3.4 ± 0.7 µM

O=C(C1=C(O)C(=O)N(c2ccccc2)C1c1cccc([N+](=O)[O-])c1)c1ccccc1 (stereo not drawn) [Compound 10-A]
IC50 (HIV-1 integrase [5]; [7]): 165 ± 35 µM

COc1ccc(N2C(=O)C(O)=C(C(=O)/C=C/c3ccccc3)C2c2cccc([N+](=O)[O-])c2)cc1 (stereo not drawn) [Compound 10-B]
IC50 (HIV-1 integrase [5]; [7]): 22 ± 12 µM

COc1ccc(N2C(=O)C(O)=C(C(=O)/C=C/c3ccccc3)C2c2ccc([N+](=O)[O-])cc2)cc1 (stereo not drawn) [Compound 10-C]
IC50 (HIV-1 integrase [5]; [7]): 46 ± 12 µM

O=C(/C=C/c1ccccc1)C1=C(O)C(=O)N(c2cccc(C(=O)O)c2)C1c1ccc([N+](=O)[O-])cc1 (stereo not drawn) [Compound 10-D]
IC50 (HIV-1 integrase [5]; [7]): 87 ± 9 µM

COc1ccc(N2C(=O)C(O)=C(C(=O)/C=C/c3ccccc3)C2c2ccc(Cl)cc2)cc1 (stereo not drawn) [Compound 10-E]
IC50 (HIV-1 integrase [5]; [7]): 12 ± 3 µM

O=C(/C=C/c1ccccc1)C1=C(O)C(=O)N(c2cccc(C(F)(F)F)c2)C1c1ccc([N+](=O)[O-])cc1 (stereo not drawn) [Compound 10-F]
IC50 (HIV-1 integrase [5]; [7]): 11 ± 4 µM

Cc1ccccc1N1C(=O)C(O)=C(C(=O)/C=C/c2ccccc2)C1c1ccc(Br)cc1 (stereo not drawn) [Compound 10-G]
IC50 (HIV-1 integrase [5]; [7]): 11 ± 2 µM

O=C(/C=C/c1ccccc1)C1=C(O)C(=O)N(c2ccccc2)C1c1cccc([N+](=O)[O-])c1 (stereo not drawn) [Compound 10]
IC50 [4]: 35 ± 3 µM

COc1cccc(OCCOc2cccc(C=C3SC(=S)NC3=O)c2)c1 [Compound 11]
IC50 [4]: 5.3 ± 0.9 µM

COc1cccc(C(c2c(O)c3ccccc3oc2=O)c2c(O)c3ccccc3oc2=O)c1 [Compound 12]
IC50 [4]: 9.5 ± 0.9 µM

COc1cc(C=C2SC(=S)NC2=O)ccc1OS(=O)(=O)c1ccccc1[N+](=O)[O-] [Compound 14]
IC50 (HIV-1 integrase [5]; [6]): 17 ± 3 µM
IC50 [4]: 8.6 ± 0.8 µM

O=C(Nc1ccccc1C(=O)O)c1ccc2c(c1)C(=O)N(c1ccccc1-c1ccccc1)C2=O [Compound 15]
IC50 [4]: 20 ± 2 µM

O=C(Nc1ccccc1C(=O)O)c1cccc(NC(=O)C(c2ccccc2)c2ccccc2)c1 [Compound 16]
IC50 [4]: 46 ± 5 µM

O=C(Nc1ccccc1C(=O)O)c1ccc(NC(=O)C(c2ccccc2)c2ccccc2)cc1 [Compound 17]
IC50 [4]: 9.3 ± 0.9 µM

O=C(O)C(Cc1ccccc1)N1C(=O)C(=Cc2ccc(Br)cc2)SC1=S (stereo not drawn) [Compound 18]
IC50 [4]: 10 ± 1 µM

O=C(O)C(Cc1ccccc1)N1C(=O)C(=CC=Cc2ccccc2)SC1=S (stereo not drawn) [Compound 19]
IC50 [4]: 16 ± 2 µM

CCCOc1ccc(C(=O)Nc2ccc(Br)cc2C(=O)O)cc1 [Compound 20]
IC50 [4]: 20 ± 3 µM

O=C(NC(=S)Nc1cc([N+](=O)[O-])cc(Cl)c1O)c1ccccc1 [aromatic thiourea]
IC50 (Tn5 transposase; read-out: IC50, inhibition of Tn5 transposase-DNA complex assembly, gel shift assays, inhibitor titration): 24 µM

O=C(C1=C(O)C(=O)N(c2ccccc2)C1c1cccc([N+](=O)[O-])c1)c1ccccc1 (stereo not drawn) [compound 10-A]
inhibition of integrase in vitro (in words) (HIV-1 integrase [2]): impedes its efficacy as an integrase inhibitor
